The values below come from patent publication US7056935B2, “Rotamase enzyme activity inhibitors” (GPI NIL Holdings, Inc., priority 1995, dated 2006).

Test [1] has as its system chick dorsal root ganglia (DRG) explants. Nature of the test: Chick dorsal root ganglion cultures and neurite outgrowth. The format is cell-based. The note with it: read-out: ED50, nM Neurite Outgrowth in DRG Cultures. Here is the method:
Dorsal root ganglia were dissected from chick embryos of ten day gestation. Whole ganglion explants were cultured on thin layer Matrigel-coated 12 well plates with Liebovitz L15 plus high glucose media supplemented with 2 mM glutamine and 10% fetal calf serum, and also containing 10 μM cytosine β-D arabinofuranoside (Ara C) at 37° C. in an environment containing 5% CO2. Twenty-four hours later, the DRGs were treated with various concentrations of nerve growth factor (NGF), immunophilin ligands or combinations of NGF plus drugs. Forty-eight hours after drug treatment, the ganglia were visualized under phase contrast or Hoffman Modulation contrast with a Zeiss Axiovert inverted microscope. Photomicrographs of the explants were made, and neurite outgrowth was quantitated. Neurites longer than the DRG diameter were counted as positive, with total number of neurites quantitated per each experimental condition. Three to four DRGs were cultured per well, and each treatment was performed in duplicate.

In test [2] the target is FKBP (Homo sapiens, UniProt P62942). The test is described as follows: Ki test procedure: inhibition of peptidyl-prolyl isomerase (rotamase) activity, chymotrypsin-coupled assay. It counts as biochemical. As to conditions: apparent Ki, substrate N-succinyl-Ala-Phe-Pro-Phe-p-nitroanilide.
Sequence of FKBP (P62942 whole entry): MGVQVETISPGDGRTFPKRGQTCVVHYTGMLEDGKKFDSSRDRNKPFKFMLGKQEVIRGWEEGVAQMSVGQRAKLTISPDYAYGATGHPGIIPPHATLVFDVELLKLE
Setting [3] is: drug alone, chick embryo DRG explants, 48 hours after drug treatment.

SMILES strings stand for the structures. Read-outs that look alike come from different tables or passages of the source.

Regarding `O=C(C(=O)N1CCCCC1C(=O)OCCCCc1ccccc1)c1ccccc1` (centres unmarked) [Compound 4, 4-Phenyl-1-butyl N-(phenylglyoxyl)-2-piperidinecarboxylate], in test [1] (Gallus gallus, 48 h), the EC50 lay within 25 to 100 nM.

In the case of `CCC(C)(C)C(=O)C(=O)N1CCC[C@H]1C(=O)OCCCc1cccnc1` [Compound 23, 3-(3-Pyridyl)-1-propyl (2S)-1-(3,3-dimethyl-1,2-dioxopentyl)-2-pyrrolidinecarboxylate], the EC50 in test [1] (Gallus gallus, 48 h) worked out at 0.05 nM.

Consider `O=C(C(=O)N1CCCCC1C(=O)OCCCc1ccccc1)c1ccccc1` (centres unmarked) [Compound 2, 3-Phenyl-1-propyl N-(phenylglyoxyl)-2-piperidinecarboxylate], for which the EC50 in test [1] (Gallus gallus, 48 h) was in the range of 10 to 20 nM.

Consider `O=C(C(=O)N1CCCCC1C(=O)OCc1ccccc1)c1ccccc1` (centres unmarked) [Compound 1, Benzyl N-(phenylglyoxyl)-2-piperidinecarboxylate], for which the EC50 in test [1] (Gallus gallus, 48 h) fell in the range of 25 to 100 nM.

In the case of `COc1ccc(CCCC(CCCc2ccccc2)OC(=O)C2CCCCN2C(=O)C(=O)c2cc(OC)c(OC)c(OC)c2)cc1` [Compound 32, 1-Phenyl-7-(4-methoxyphenyl)-4-heptyl (S)-N-(3,4,5-trimethoxyphenylglyoxyl)-pipecolate], the EC50 in test [1] (Gallus gallus, 48 h) is 0.5 nM. Also, the Ki in test [2] (Table II) came out at 3 nM.

Take `CCC(C)(C)C(=O)C(=O)N1CCC[C@H]1C(=O)OC/C=C/c1cc(OC)ccc1OC` [Compound 22, 3-(2,5-Dimethoxyphenyl)-1-prop-2(E)-enyl (2S)-1-(3,3-dimethyl-1,2-dioxopentyl)-2-pyrrolidinecarboxylate]: the EC50 in test [1] (Gallus gallus, 48 h) turned out to be 0.8 nM.

With `O=C(C(=O)N1CCC[C@H]1C(=O)OCCCc1ccccc1)C1CCCCC1` [Compound 24, 3-Phenyl-1-propyl (2S)-1-(cyclohexylglyoxyl)-2-pyrrolidinecarboxylate], in test [1] (Gallus gallus, 48 h), the EC50 was found to be 0.13 nM.

Regarding `CCC(C)(C)C(=O)C(=O)N1CCC[C@H]1C(=O)OCCCc1ccccc1` [Compound 17, 3-phenyl-1-propyl (2S)-1-(3,3-dimethyl-1,2-dioxopentyl)-2-pyrrolidinecarboxylate], the EC50 in test [1] (Gallus gallus, 48 h) was found to be 0.053 nM.

Consider `COc1cc(C(=O)C(=O)N2CCCCC2C(=O)OC(CCCc2ccccc2)CCc2cccnc2)cc(OC)c1OC` [Compound 30, 1-Phenyl-6-(3-pyridyl)-3-hexyl (S)-N-(3,4,5-trimethoxyphenylglyoxyl)pipecolate], for which, in test [1] (Gallus gallus, 48 h), the EC50 turned out to be 0.95 nM.

For the compound `CCC(C)(C)C(=O)C(=O)N1CCC[C@H]1C(=O)OCCCc1cc(OC)c(OC)c(OC)c1` [Compound 19, 3-(3,4,5-trimethoxyphenyl)-1-propyl (2S)-1-(3,3-dimethyl-1,2-dioxopentyl)-2-pyrrolidine-carboxylate], the EC50 in test [1] (Gallus gallus, 48 h) is 80 nM. Moreover, in test [2] (Table I), the Ki turned out to be 25 nM.

As to `CCC(C)(C)C(=O)C(=O)N1CCC[C@H]1C(=O)OC/C=C/c1cc(OC)c(OC)c(OC)c1` [Compound 20, 3-(3,4,5-trimethoxyphenyl)-1-prop-2-(E)-enyl (2S)-1-(3,3-dimethyl-1,2-dioxopentyl)-2-pyrrolidine carboxylate], the EC50 in test [1] (Gallus gallus, 48 h) was 190 nM. The Ki in test [2] (Table I) came to 125 nM.

Take `COc1cc(C(=O)C(=O)N2CCCCC2C(=O)OC(CCCc2ccccc2)CCCc2ccccn2)cc(OC)c1OC` [Compound 31, 1-Phenyl-7-(2-pyridyl)-4-heptyl (S)-N-(3,4,5-trimethoxyphenylglyoxyl)pipecolate]: the EC50 in test [1] (Gallus gallus, 48 h) came out at 25 nM. Moreover, in test [2] (Table II), the Ki was found to be 1 nM.

`O=C(C(=O)N1CCCCC1C(=O)OC(CCCc1ccccc1)CCCc1ccccc1)c1ccccc1` (centres unmarked) [Compound 28]: the EC50 in test [1] (setting [3]) was found to be 0.0044 nM.

For the compound `CCC(C)(C)C(=O)C(=O)N1CCC[C@H]1C(=O)OC/C=C/c1ccc(Cl)c(Cl)c1` [Compound 21, 3-(4,5-Dichlorophenyl)-1-prop-2-(E)-enyl (2S)-1-(3,3-dimethyl-1,2-dioxopentyl)-2-pyrrolidine carboxylate], the EC50 in test [1] (Gallus gallus, 48 h) came out at 85 nM. The Ki in test [2] (Table I) worked out at 2500 nM.

For `O=C(C(=O)N1CCCCC1C(=O)OCCc1ccccc1)c1ccccc1` (centres unmarked) [Compound 5, 2-Phenyl-1-ethyl N-(phenylglyoxyl)-2-piperidinecarboxylate], the EC50 in test [1] (Gallus gallus, 48 h) is 25 to 100 nM.

Take `COc1cc(C(=O)C(=O)N2CCCCC2C(=O)OC(CCCc2ccccc2)CCCc2ccccc2)cc(OC)c1OC` [Compound 29, 1,7-Diphenyl-4-heptyl (S)-N-(3,4,5-trimethoxyphenylglyoxyl)pipecolate]: the EC50 in test [1] (setting [3]) was determined as 0.61 nM.

On to `COc1ccc(CCCCOC(=O)C2CCCCN2C(=O)C(=O)c2cc(OC)c(OC)c(OC)c2)cc1` [Compound 16, 4-(4-Methoxyphenyl)butyl (S)-N-(3,4,5-trimethoxyphenylglyoxyl)pipecolate], for which the EC50 in test [1] (Gallus gallus, 48 h) stood at 0.03 nM.

Consider `COc1ccc(CCCCOC(=O)C2CCCCN2C(=O)C(=O)c2ccccc2)cc1` (centres unmarked) [Compound 3], for which, in test [1] (Gallus gallus, 48 h), the EC50 was found to be 0.5 nM.

For the compound `COC(=O)C(=O)N1CCCCC1C(=O)OCc1ccccc1` (centres unmarked) [Compound 7, Benzyl N-(methoxyglyoxyl)-2-piperidinecarboxylate], the EC50 in test [1] (Gallus gallus, 48 h) is over 10000 nM.

For `CCC(C)(C)C(=O)C(=O)N1CCC[C@H]1C(=O)OC/C=C/c1ccccc1` [Compound 18, 3-phenyl-1-prop-2-(E)-enyl (2S)-1-(3,3-dimethyl-1,2-dioxopentyl)-2-pyrrolidinecarboxylate], the EC50 in test [1] (Gallus gallus, 48 h) is 105 nM.

In the case of `COc1cc(C(=O)C(=O)N2CCCCC2C(=O)OCCCCc2ccccc2)cc(OC)c1OC` [Compound 14, 4-Phenylbutyl (S)-N-(3,4,5-trimethoxyphenylglyoxyl)pipecolate], the EC50 in test [1] (Gallus gallus, 48 h) was in the range of 1 to 5 nM.
